The test system of one assay is KB. The assay can be described thus: Effective cytotoxic dose against KB cells was evaluated. It counts as functional. To be noted: Homo sapiens, read-out: ED50 (the source's name).
A further assay deals with CCRF-CEM. The experiment in a line: Compound was evaluated for cytotoxicity against CCRF-CEM leukemia cell line. It counts as functional. To be noted: Homo sapiens.
Assay [1] deals with HCT-15. The experiment in a line: Compound was evaluated for cytotoxicity against HCT-15 colon cancer cell line. It counts as functional. The following applies: Homo sapiens.
The test system of a further assay is IGROV-1. The experiment in a line: Compound was evaluated for cytotoxicity against IGROV1 Ovarian cancer cell line. It counts as functional. The following applies: Homo sapiens.
The next assay concerns LOX IMVI. The assay can be described thus: Compound was evaluated for cytotoxicity against LOX IMVI melanoma cell line. It counts as functional. The following applies: Homo sapiens.
The next assay relates to MDA-N. The experiment in a line: Compound was evaluated for cytotoxicity against MDA-N breast cancer cell line. It counts as functional. The following applies: Homo sapiens.
The next assay relates to MDA-MB-435. The experiment in a line: Compound was evaluated for cytotoxicity against MDA-MB-435 breast cancer cell line. It counts as functional. The following applies: Homo sapiens.
The subject of assay [2] is NCI-H460. The assay can be described thus: Compound was evaluated for cytotoxicity against NCI-H460 non small cell kung cancer cell line. It counts as functional. The following applies: Homo sapiens.
Another assay deals with OVCAR-3. The experiment in a line: Compound was evaluated for cytotoxicity against OVCAR-3 Ovarian cancer cell line. It counts as functional. The following applies: Homo sapiens.
Assay [3] deals with NCI-H23. The experiment in a line: Compound was evaluated for cytotoxicity against NCI-H23 non small cell kung cancer cell line. It counts as functional. The following applies: Homo sapiens.
The subject of assay [4] is SNB-19. The assay can be described thus: Compound was evaluated for cytotoxicity against SNB-19 CNS cancer cell line. It counts as functional. To be noted: Homo sapiens.
Another assay concerns SR. The assay can be described thus: Compound was evaluated for cytotoxicity against SR leukemia cell line. It counts as functional. The following applies: Homo sapiens.
Another assay concerns SK-MEL-5. The experiment in a line: Compound was evaluated for cytotoxicity against SK-MEL-5 melanoma cell line. The following applies: Homo sapiens. It counts as functional.
Assay [5] concerns SW-620. The experiment in a line: Compound was evaluated for cytotoxicity against SW-620 colon cancer cell line. It counts as functional. The following applies: Homo sapiens.
The next assay deals with MOLT-4. The assay can be described thus: Compound was evaluated for cytotoxicity against MOLT-4 leukemia cell line. It counts as functional. To be noted: Homo sapiens.
Assay [6] deals with MCF7. The assay can be described thus: Compound was evaluated for cytotoxicity against MCF-7 breast cancer cell line. It counts as functional. To be noted: Homo sapiens.
Assay [7] has as its system SF-539. The experiment in a line: Compound was evaluated for cytotoxicity against SF-539 CNS cancer cell line. It counts as functional. To be noted: Homo sapiens.
Assay [8] has as its system NCI-H522. The assay can be described thus: Compound was evaluated for cytotoxicity against […] non small cell kung cancer cell line. It counts as functional. The following applies: Homo sapiens.
The next assay concerns NCI/ADR-RES. The experiment in a line: Compound was evaluated for cytotoxicity against MCF 7/ADR-RES breast cancer cell line. To be noted: Homo sapiens.
Assay [9] relates to MCF7. The experiment in a line: Compound was evaluated for cytotoxicity against MCF-7 breast cancer cell lines. It counts as functional. To be noted: Homo sapiens.
Assay [10] concerns NCI-H460. The assay can be described thus: Compound was evaluated for cytotoxicity against NCI-H460 non small cell lung cancer cell line. To be noted: Homo sapiens. It counts as functional.
The subject of assay [11] is NCI-H23. The experiment in a line: Compound was evaluated for cytotoxicity against NCI-H23 non small cell lung cancer cell line. The following applies: Homo sapiens. It counts as functional.
For assay [12], the system named is SF-539. The assay can be described thus: Compound was evaluated for cytotoxicity against SF-539 CNS cancer cell line. The following applies: Homo sapiens.
In assay [13] the test system is SNB-19. The assay can be described thus: Compound was evaluated for cytotoxicity against SNB-19 CNS cancer cell line. To be noted: Homo sapiens.
Assay [14] has as its system HCT-15. The assay can be described thus: Compound was evaluated for cytotoxicity against HCT-15 colon cancer cell line. To be noted: Homo sapiens.
The test system of assay [15] is SW-620. The experiment in a line: Compound was evaluated for cytotoxicity against SW-620 colon cancer cell line. To be noted: Homo sapiens.
The test system of assay [16] is NCI-H522. The experiment in a line: Compound was evaluated for cytotoxicity against NCI-H522 non small cell lung cancer cell line. The following applies: Homo sapiens.
In assay [17] the test system is NCI-H522. The assay can be described thus: Compound was evaluated for cytotoxicity against […] non small cell lung cancer cell line. It counts as functional. The following applies: Homo sapiens.

With `CC(=O)c1ccc2c(c1)C(=O)c1scc(C(C)=O)c1C2=O`, the EC50 in the assay with KB was determined as 450 nM.

On to `CC(=O)c1ccc2c(c1)C(=O)c1sc(C(C)=O)cc1C2=O`, for which the 50% growth inhibitory concentration (GI50) in the assay with CCRF-CEM is 182 nM; in the assay on HCT-15 [1], 40.7 nM; in the assay with IGROV-1, 427 nM; in the assay with LOX IMVI it was 219 nM; in the assay with MDA-N, 316 nM; in the assay with MDA-MB-435, 178 nM. Further, the concentration for 50% growth inhibition (GI50) was 363 nM with NCI-H460 [2]; 331 nM with OVCAR-3; 603 nM in the assay on NCI-H23 [3]; 1350 nM with SNB-19 [4]; 24.6 nM in the assay with SR; 174 nM in the assay with SK-MEL-5. Also, the 50% growth inhibitory concentration (GI50) is 204 nM in the assay with SW-620 [5]; 66.1 nM in the assay on MOLT-4; 316 nM in the assay with MCF7 [6]; 355 nM with SF-539 [7]; 224 nM in the assay on NCI-H522 [8]; 324 nM in the assay with NCI/ADR-RES. In addition, in the assay with KB, the EC50 is roughly 1500 nM.

For the molecule `CC(=O)c1csc2c1C(=O)c1ccccc1C2=O`, the GI50 in the assay with CCRF-CEM was 1550 nM; in the assay with IGROV-1, 2450 nM; in the assay on MCF7 [9] it was 2090 nM; in the assay on LOX IMVI, 2340 nM; in the assay on MDA-N, 933 nM; with MDA-MB-435, 324 nM. The GI50 in the assay on NCI-H460 [10] was 1320 nM; with OVCAR-3, 3550 nM; in the assay with NCI-H23 [11], 1050 nM; in the assay with SK-MEL-5, 170 nM; in the assay with MOLT-4 it was less than 10 nM; in the assay on SF-539 [12], 2040 nM. The GI50 with SNB-19 [13] was 1780 nM; with HCT-15 [14] it was 17.4 µM; in the assay on SW-620 [15], 2190 nM; with NCI/ADR-RES, 2880 nM; with NCI-H522 [16], 1740 nM.

Consider `CC(=O)c1cc2c(s1)C(=O)c1ccccc1C2=O`, for which the GI50 with CCRF-CEM is 1000 nM; with HCT-15 [1], 708 nM; in the assay with IGROV-1 it was 1780 nM; with LOX IMVI it was 347 nM; in the assay on MDA-N it was 1200 nM; in the assay with MDA-MB-435, 339 nM. For the same molecule, the GI50 in the assay on NCI-H522 [17] is 407 nM; in the assay on NCI-H460 [10] it was 457 nM; with OVCAR-3, 501 nM; in the assay with NCI-H23 [11] it was 447 nM; with SNB-19 [4] it was 501 nM; in the assay on SK-MEL-5 it was 347 nM. The GI50 with SW-620 [5] was 457 nM; in the assay on MOLT-4, 2040 nM; in the assay on MCF7 [6], 1700 nM; in the assay on SF-539 [7] it was 759 nM; with NCI/ADR-RES, 1910 nM.

Take `CC(=O)c1cc2c(o1)C(=O)c1ccccc1C2=O` [NAPABUCASIN]: the EC50 with KB is 4200 nM.

Values taken from ChEMBL document CHEMBL1130606, “Synthesis and cytotoxicity of acetyl-4H,9H-naphtho[2,3-b]thiophene-4,9-diones” (1998).
